We go through four molecules from the NIST ThermoML archive (doi:10.1021/je800026p).

± gives the expanded uncertainty stated by the source.

For the series the following is noted: 101.33 kPa, Liquid; for speed of sound: Sing-around technique in a fixed-path interferometer; for mass density: Vibrating tube method.

The speed of sound is the propagation velocity of pressure waves in the medium. A word on the mass density: it is the mass of a sample divided by its volume. Regarding `CCCCNCCCC` [dibutylamine], the speed of sound is given as 1289.2 ± 2.2 m/s (288.15 K); 1269.5 ± 2.2 m/s (293.15 K); 1246.7 ± 2.2 m/s (298.15 K); 1226.7 ± 2.2 m/s (303.15 K); 1207 ± 2.2 m/s (308.15 K). The mass density was determined as 766.115 ± 2.1 kg/m3 (288.15 K); 762.022 ± 2.1 kg/m3 (293.15 K); 757.784 ± 2.1 kg/m3 (298.15 K); 752.284 ± 2 kg/m3 (303.15 K); 748.17 ± 2 kg/m3 (308.15 K).

Turning to `CCCCN` [1-butanamine], the speed of sound reads like this: (288.15 K) 1296.1 ± 2.2 m/s; (293.15 K) 1273.6 ± 2.2 m/s; (298.15 K) 1250 ± 2.2 m/s; (303.15 K) 1228.9 ± 2.2 m/s; (308.15 K) 1205.7 ± 2.2 m/s. The mass density is, setting by setting: (288.15 K) 742.865 ± 0.58 kg/m3; (293.15 K) 738.096 ± 0.58 kg/m3; (298.15 K) 733.301 ± 0.57 kg/m3; (303.15 K) 728.477 ± 0.57 kg/m3; (308.15 K) 723.625 ± 0.56 kg/m3.

For `CCCCN(CCCC)CCCC` [tributylamine], the speed of sound runs as follows: (288.15 K) 1285 ± 2.2 m/s; (293.15 K) 1266.4 ± 2.2 m/s; (298.15 K) 1247.6 ± 2.2 m/s; (303.15 K) 1229 ± 2.2 m/s; (308.15 K) 1210.4 ± 2.2 m/s. Further, the mass density is, setting by setting: (288.15 K) 781.336 ± 0.61 kg/m3; (293.15 K) 777.632 ± 0.61 kg/m3; (298.15 K) 773.913 ± 0.6 kg/m3; (303.15 K) 770.183 ± 0.6 kg/m3; (308.15 K) 766.44 ± 0.6 kg/m3.

Consider `CCCCCCOCCOCCO` [2-(2-hexyloxyethoxy)ethanol], for which the speed of sound runs as follows: (288.15 K) 1405.2 ± 2.2 m/s; (293.15 K) 1388.1 ± 2.2 m/s; (298.15 K) 1371.1 ± 2.2 m/s; (303.15 K) 1354.3 ± 2.2 m/s; (308.15 K) 1337.7 ± 2.2 m/s. For the same molecule, the mass density by setting is: (288.15 K) 936.901 ± 0.77 kg/m3; (293.15 K) 932.917 ± 0.76 kg/m3; (298.15 K) 928.926 ± 0.76 kg/m3; (303.15 K) 924.931 ± 0.75 kg/m3; (308.15 K) 920.933 ± 0.75 kg/m3.
